Earlier results, collected in US7687484B2, “Transporter enhanced corticosteroid activity” (priority 2006, dated 2010).

Target: T1, Corticosteroid Binding Globulin (CBG), transcortin (Homo sapiens, UniProt P08185)
T1 sequence (P08185 23-405): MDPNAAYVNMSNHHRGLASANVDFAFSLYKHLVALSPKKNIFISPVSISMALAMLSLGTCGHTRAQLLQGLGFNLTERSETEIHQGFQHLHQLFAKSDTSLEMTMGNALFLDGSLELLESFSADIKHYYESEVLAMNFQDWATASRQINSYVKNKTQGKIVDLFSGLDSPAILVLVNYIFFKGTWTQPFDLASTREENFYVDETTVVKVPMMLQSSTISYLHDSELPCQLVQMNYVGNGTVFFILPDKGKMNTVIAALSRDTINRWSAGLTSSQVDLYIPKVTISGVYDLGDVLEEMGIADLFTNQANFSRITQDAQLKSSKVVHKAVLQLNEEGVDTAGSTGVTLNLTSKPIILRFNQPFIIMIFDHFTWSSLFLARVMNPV
Conditions: cited from earlier work; for Class: CBG binding activity class; for Log 1/K: CBG binding affinity, literature data
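Wherever Class is given: class 1 means high CBG binding and 2 intermediate and 3 low.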

| SMILES | Class | Log 1/K |
| --- | --- | --- |
| C[C@]12CCC(=O)C=C1CC[C@@H]1[C@@H]2[C@@H](O)C[C@]2(C=O)[C@@H](C(=O)CO)CC[C@@H]12 [aldosterone] | 2 | −6.279 |
| C[C@]12CC[C@H]3[C@@H](CCC4=CC(=O)CC[C@@H]43)[C@@H]1CC[C@@H]2O [19-nortestosterone] | 2 | −6.144 |
| C[C@]12CC[C@H]3[C@@H](CCC4=CC(=O)CC[C@@]43C)[C@@H]1CC[C@@H]2O [testosterone] | 2 | −6.724 |
| CC1CC2(C)C(=CC1=O)CCC1C2C(O)CC2(C)C1CCC2(O)C(=O)CO (stereo not drawn) [2α-methylcortisol] | 1 | −7.688 |
| CC(=O)[C@@]1(O)CC[C@H]2[C@@H]3CC=C4C[C@@H](O)CC[C@]4(C)[C@H]3CC[C@@]21C [17α-hydroxypregnenolone] | 3 | −5.000 |
| CC(=O)[C@H]1CC[C@H]2[C@@H]3CCC4=CC(=O)CC[C@]4(C)[C@H]3C(=O)C[C@]12C [4-pregnene-3,11,20-trione] | 2 | −6.779 |
| C[C@]12C[C@@H](O)[C@H]3[C@@H](CCC4=CC(=O)CC[C@@]43C)[C@@H]1CC[C@@H]2C(=O)CO [epicorticosterone] | 1 | −7.200 |
| C[C@]12CCC(O)C[C@@H]1CC[C@@H]1[C@@H]2CC[C@]2(C)[C@@H](O)CC[C@@H]12 (stereo partly drawn) [androstanediol] | 3 | −5.000 |
| C[C@]12CCC(=O)C=C1CC[C@@H]1[C@@H]2C(=O)C[C@@]2(C)[C@H]1CC[C@]2(O)C(=O)CO [cortisone] | 2 | −6.892 |
| CC(=O)[C@H]1[C@H](C)C[C@H]2[C@@H]3CCC4=CC(=O)CC[C@]4(C)[C@H]3CC[C@@]21C [16α-methylprogesterone] | 1 | −7.120 |
| C[C@]12CC[C@@H]3c4ccc(O)cc4CC[C@H]3[C@@H]1C[C@@H](O)[C@@H]2O [estriol] | 3 | −5.000 |
| CC(=O)[C@H]1CC[C@H]2[C@@H]3CCC4=CC(=O)CC[C@@H]4[C@H]3CC[C@]12C [19-norprogesterone] | 2 | −6.817 |
| CC(=O)[C@H]1CC[C@H]2[C@@H]3CC=C4C[C@@H](O)CC[C@]4(C)[C@H]3CC[C@]12C [pregnenolone] | 3 | −5.225 |
| C[C@]12CC[C@H]3[C@@H](CCC4=CC(=O)CC[C@@]43C)[C@@H]1CC[C@@H]2C(=O)CO [11-deoxycorticosterone] | 1 | −7.653 |
| CC(=O)OCC(=O)[C@@]1(O)CC[C@H]2[C@@H]3CCC4=CC(=O)CC[C@]4(C)[C@H]3[C@@H](O)C[C@@]21C [cortisolacetat] | 1 | −7.553 |
| CC(=O)[C@H]1CC[C@H]2[C@@H]3CCC4=CC(=O)CC[C@]4(C)[C@H]3CC[C@]12C [progesterone] | 1 | −7.380 |
| C[C@@H]1C[C@@]2(C)C(=CC1=O)CC[C@H]1[C@@H]3CC[C@](O)(C(=O)CO)[C@@]3(C)C[C@H](O)[C@@]12F [2α-methyl-9α-fluoro-cortisol] | 2 | −5.797 |
| CC(=O)[C@@]1(O)CC[C@H]2[C@@H]3CCC4=CC(=O)CC[C@]4(C)[C@H]3CC[C@@]21C [17α-hydroxyprogesterone] | 1 | −7.740 |
| C[C@]12CC[C@H](O)CC1=CC[C@@H]1[C@@H]2CC[C@]2(C)C(=O)CC[C@@H]12 [dehydroepiandrosterone] | 3 | −5.000 |
| CC(=O)[C@@]1(O)[C@H](O)C[C@H]2[C@@H]3CCC4=CC(=O)CC[C@]4(C)[C@H]3CC[C@@]21C [16α,17α-dihydroxyprogesterone] | 2 | −6.247 |
| C[C@]12CCC(=O)C=C1CC[C@@H]1[C@@H]2CC[C@]2(C)C(=O)CC[C@@H]12 [4-androstenedione] | 3 | −5.763 |
